Experimental data from patent US20240254138A1, “TRICYCLIC PYRIMIDINES AS CYCLIN-DEPENDENT KINASE 7 (CDK7) INHIBITORS” (JANSSEN PHARMACEUTICA NV, priority 2021, published 2024).
Like-named read-outs stand apart in the source and are kept apart here.

Key:
[1] = target: CDK7/cyclinH/MAT1 trimeric complex (Homo sapiens, UniProt P50613); test: In vitro CDK7 assay, potency of irreversible covalent inhibitors (kinact/KI), coupled PK/LDH ADP readout at 340 nm
[2] = tested on: RNA Polymerase II Serine 5 phosphorylation in A549 cells overexpressing CDK7-mutant (C312S); test: Imaging-based cellular RNA PolII Ser5 phosphorylation assay in A549 cells overexpressing CDK7-mutant (C312S); type: cell-based, human; conditions: RNA PolII Ser5 phosphorylation, averaged over all measurements; for IC50: Homo sapiens, A549, A549 cells overexpressing CDK7-mutant (C312S), read-out: CDK7_A549 mutant hCDK7(pIC50) (converted); for CDK7_A549 mutant hCDK7(pIC50): A549 cells overexpressing CDK7-mutant (C312S)
Outline: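 A549 cells overexpressing CDK7 C312S (with endogenous wild-type CDK7) were treated with compound for 3 h at 37 °C in 1% FBS medium. Phospho-Rpb1 CTD Ser5 was immunostained after fixation and imaged. IC50 came from curve fit of % control, normalised to DMSO and 10 μM reference-compound controls.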

[3] = tested on: RNA Polymerase II Serine 5 phosphorylation (Rpb1 CTD, downstream substrate of CDK7) in A549 cells; test: Imaging-based cellular RNA PolII Ser5 phosphorylation assay in A549 cells; type: cell-based, human; conditions: wild-type CDK7, RNA PolII Ser5 phosphorylation, averaged over all measurements; for IC50: Homo sapiens, A549, A549 cells, read-out: CDK7_A549 Wild-type CDK7 (pIC50) (converted)
Outline: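 A549 cells, seeded 1000/well in DMEM with 1% FBS and cultured 20 h, were treated with compound for 3 h at 37 °C. Ser5-phospho-Rpb1 CTD detected by immunofluorescence imaging after fixation and methanol permeabilization; IC50 from curve fit normalized to DMSO and 10 μM reference-compound controls.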

[4] = CDK7 (20 nM enz.) (KI, μM), 20 nM enzyme
[5] = read-out: CDK7 (20 nM enz.) (kinact, s^−1), 20 nM enzyme
[6] = read-out: CDK7 (20 nM enz.) (kinact/KI, M^−1*s^−1), 20 nM enzyme
[7] = CDK7 (KI(μM)), […], 1 mM ATP, room temperature, averaged values over all measurements
[8] = read-out: CDK7 (kinact, s^−1), kinact = maximal rate of inactivation, 1 mM ATP, room temperature, averaged values over all measurements
[9] = read-out: CDK7 (kinact/KI, M^−1*s^−1), potency of irreversible covalent inhibitors, 1 mM ATP, room temperature, averaged values over all measurements
[10] = read-out: CDK7 (20 nM enz.) (kobs/[I], M^−1*s^−1), 20 nM enzyme

Sequence of CDK7/cyclinH/MAT1 trimeric complex (P50613 whole entry): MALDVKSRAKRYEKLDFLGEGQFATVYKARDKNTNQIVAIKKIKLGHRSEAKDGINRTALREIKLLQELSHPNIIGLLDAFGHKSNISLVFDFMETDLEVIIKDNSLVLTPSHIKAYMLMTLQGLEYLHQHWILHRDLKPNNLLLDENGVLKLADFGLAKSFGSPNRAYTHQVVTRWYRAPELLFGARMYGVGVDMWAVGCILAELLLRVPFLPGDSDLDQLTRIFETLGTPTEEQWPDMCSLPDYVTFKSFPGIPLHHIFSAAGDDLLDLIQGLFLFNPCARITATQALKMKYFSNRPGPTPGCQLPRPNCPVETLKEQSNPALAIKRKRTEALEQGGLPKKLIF
Sequence of CDK7/cyclinH/MAT1 trimeric complex (P51946 whole entry partner): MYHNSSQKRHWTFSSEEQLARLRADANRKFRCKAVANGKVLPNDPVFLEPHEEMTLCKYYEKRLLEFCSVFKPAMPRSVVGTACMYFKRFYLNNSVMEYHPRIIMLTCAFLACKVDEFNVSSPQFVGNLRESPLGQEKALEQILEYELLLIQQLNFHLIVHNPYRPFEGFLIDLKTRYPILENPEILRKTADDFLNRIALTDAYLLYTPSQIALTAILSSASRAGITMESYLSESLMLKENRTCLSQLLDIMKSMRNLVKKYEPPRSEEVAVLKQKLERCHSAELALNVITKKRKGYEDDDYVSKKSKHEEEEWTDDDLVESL
Sequence of CDK7/cyclinH/MAT1 trimeric complex (P51948 whole entry partner): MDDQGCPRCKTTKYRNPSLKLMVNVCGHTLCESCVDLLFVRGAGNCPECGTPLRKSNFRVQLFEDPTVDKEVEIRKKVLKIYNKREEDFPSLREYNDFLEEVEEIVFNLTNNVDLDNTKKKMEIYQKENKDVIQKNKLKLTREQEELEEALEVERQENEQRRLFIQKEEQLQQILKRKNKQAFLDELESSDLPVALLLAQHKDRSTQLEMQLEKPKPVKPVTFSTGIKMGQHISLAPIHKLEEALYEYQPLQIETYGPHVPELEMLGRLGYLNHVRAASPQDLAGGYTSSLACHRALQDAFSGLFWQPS

SMILES | Ki [1, 4] | kinact [1, 5] | kinact/KI [1, 6] | IC50 [2] | IC50 [3] | melting point | Ki [1, 7] | kinact [1, 8] | kinact/KI [1, 9] | kinact/KI [1, 10] | CDK7_A549 mutant hCDK7(pIC50) [2] | CDK7_A549 Wild-type CDK7 (pIC50) ([3]; A549 cells) | CDK7 (20 nM enz.) (kinact, s^−1) ([1]; 20 nM enzyme)
CC#CC(=O)N1CC(N2CCC(c3cc4c(c(C5CC5)n3)OCc3c(N5CCOCC5)ccnc3N4)CC2)C1 [Compound 403] | 0.0766 µM | 4.63e-05 s⁻¹ | 605 M⁻¹ s⁻¹ | > 10000 nM | 155 nM | 174.8 °C | – | – | – | – | – | – | –
C=CC(=O)N1CC(N2CCC(c3ccc4c(c3)OCc3c(N5CCOCC5)ccnc3N4)CC2)C1 [Compound 35] | – | – | – | > 10000 nM | 692 nM | 117.9 °C | 0.123 µM | 0.000133 s⁻¹ | 1090 M⁻¹ s⁻¹ | – | – | – | –
CC#CC(=O)N1CC(N2CCC(c3cc4c(c(C)n3)OCc3c(N5CCOCC5)ccnc3N4)CC2)C1 [Compound 279] | 0.233 µM | 2.96e-05 s⁻¹ | 127 M⁻¹ s⁻¹ | > 10000 nM | 138 nM | 178.5 °C | – | – | – | – | – | – | –
C=CC(=O)N1CC(N2CCC(c3cc4c(c(C#N)n3)OCc3c(N5CCOCC5)ccnc3N4)CC2)C1 [Compound 306] | – | – | – | > 10000 nM | 123 nM | 256.7 °C | – | – | – | 1170 M⁻¹ s⁻¹ | – | – | –
C=CC(=O)N1CC(N2CCC(c3cc(C#N)c4c(c3)Nc3nccc(N5CCOCC5)c3[C@H](C)O4)CC2)C1 (single isomer, unassigned) [Compound 353] | 4.52 µM | 0.000132 s⁻¹ | 29.2 M⁻¹ s⁻¹ | > 10000 nM | 209 nM | 220.7 °C | – | – | – | – | – | – | –
C=CC(=O)N1CC(N2CCC(c3cc4c(c(C)n3)OCc3c(N5CCOCC5)ccnc3N4)CC2)C1 [Compound 173] | 0.0574 µM | 7.26e-05 s⁻¹ | 1260 M⁻¹ s⁻¹ | – | 64.6 nM | 236.9 °C | – | – | – | – | <5.4 | – | –
C=CC(=O)N1CC(N2CCC(c3cc4c(cn3)OCc3c(N5CCOCC5)ccnc3N4)CC2)C1 [Compound 83] | – | – | – | – | – | 238.4 °C | – | – | – | 782 M⁻¹ s⁻¹ | <5 | 6.95 | –
C#Cc1cc(C2CCN(C3CN(C(=O)C=C)C3)CC2)cc2c1O[C@H](C)c1c(N3CCOCC3)ccnc1N2 (single isomer, unassigned) [Compound 268] | 0.934 µM | 4.13e-05 s⁻¹ | 44.2 M⁻¹ s⁻¹ | > 10000 nM | 1070 nM | 236.7 °C | – | – | – | – | – | – | –
C=CC(=O)N1CC(N2CCC(c3cc4c(c(-c5ncc[nH]5)n3)OCc3c(N5CCOCC5)ccnc3N4)CC2)C1 [Compound 378] | – | – | – | > 3980 nM | 162 nM | 195.5 °C | – | – | – | 1740 M⁻¹ s⁻¹ | – | – | –
CC#CC(=O)N1CC(N2CCC(c3cc4c(c(-c5ncc[nH]5)n3)OCc3c(N5CCOCC5)ccnc3N4)CC2)C1 [Compound 369] | 0.0216 µM | 3e-05 s⁻¹ | 1390 M⁻¹ s⁻¹ | > 10000 nM | 245 nM | 229.2 °C | – | – | – | – | – | – | –
C=C(C(=O)N1CC(N2CCC(c3cc4c(c(C)n3)O[C@@H](C)c3c(N5CCOCC5)ccnc3N4)CC2)C1)n1cccn1 (single isomer, unassigned) [Compound 523] | 0.0496 µM | 1.97e-05 s⁻¹ | 398 M⁻¹ s⁻¹ | > 10000 nM | 97.7 nM | 148 °C | – | – | – | – | – | – | –
C=CC(=O)N1CC(N2CCC(c3ccc4c(c3)Nc3nccc(-c5cnn(C)c5)c3[C@H](C)O4)CC2)C1 (single isomer, unassigned) [Compound 128] | 10.2 µM | 0.000115 s⁻¹ | 11.3 M⁻¹ s⁻¹ | > 10000 nM | 4470 nM | 223.3 °C | – | – | – | – | – | – | –
C=CC(=O)N1CC(N2CCC(c3cc4c(cn3)O[C@H](C)c3c(N5CCOCC5)ccnc3N4)CC2)C1 (single isomer, unassigned) [Compound 263] | 0.168 µM | 5.18e-05 s⁻¹ | 308 M⁻¹ s⁻¹ | > 3980 nM | 51.3 nM | > 300 °C | – | – | – | – | – | – | –
C=CC(=O)N1CC[C@H](N2CCC(c3ccc4c(c3)Nc3ncc(F)c(N5CCOCC5)c3CO4)CC2)C1 (single isomer, unassigned) [Compound 222] | 0.18 µM | 7.49e-05 s⁻¹ | 416 M⁻¹ s⁻¹ | > 10000 nM | 97.7 nM | 138 °C | – | – | – | – | – | – | –
C=C(C(=O)N1CC(N2CCC(c3cc4c(c(C)n3)O[C@H](C)c3c(N5CCOCC5)ccnc3N4)CC2)C1)n1cccn1 (single isomer, unassigned) [Compound 526] | 0.0767 µM | 2.61e-05 s⁻¹ | 340 M⁻¹ s⁻¹ | > 2510 nM | 14.1 nM | 131.3 °C | – | – | – | – | – | – | –
C=CC(=O)N1CC[C@@H](N2CCC(c3ccc4c(c3)Nc3ncc(F)c(N5CCOCC5)c3CO4)CC2)C1 (single isomer, unassigned) [Compound 223] | 0.127 µM | 6.11e-05 s⁻¹ | 480 M⁻¹ s⁻¹ | 7590 nM | 41.7 nM | 106 °C | – | – | – | – | – | – | –
C=CC(=O)N1CC(N2CCC(c3cc4c(c(C5CC5)n3)OCc3c(N5CCOCC5)ccnc3N4)CC2)C1 [Compound 272] | 0.0212 µM | 2.13e-05 s⁻¹ | 1010 M⁻¹ s⁻¹ | > 10000 nM | 44.7 nM | 189.9 °C | – | – | – | – | – | – | –
C=CC(=O)N1CC(N2CCC(c3cc4c(c(C)n3)O[C@H](C)c3c(N5CCOCC5)ccnc3N4)CC2)C1 (single isomer, unassigned) [Compound 262] | 0.0323 µM | 3.71e-05 s⁻¹ | 1150 M⁻¹ s⁻¹ | > 10000 nM | 29.5 nM | 225 °C | – | – | – | – | – | – | –
C=CC(=O)N1CC(N2CCC(c3cc4c(c(C)n3)OCc3c(-c5cnn(C)c5)ccnc3N4)CC2)C1 [Compound 164] | 0.0786 µM | – | 1010 M⁻¹ s⁻¹ | > 10000 nM | 55 nM | 277.8 °C | – | – | – | – | – | – | 7.933e-05 s⁻¹
C=CC(=O)Nc1ccc(C(=O)Nc2ccc3c(c2)Nc2nccc(C4CCOCC4)c2CO3)cc1 [Compound 1] | 0.0456 µM | 5.77e-05 s⁻¹ | 1270 M⁻¹ s⁻¹ | ~8510 nM | 132 nM | 281.1 °C | 0.107 µM | 0.0003 s⁻¹ | 2030 M⁻¹ s⁻¹ | – | – | – | –
